The nature of this data set: Ex vivo energy facilitated drug delivery from coated balloon to arteries in closed flow loop, HPLC quantification. The format is in vitro ADME, swine. Conditions: ex vivo porcine arteries, Trireme Chocolate balloon 6.0×40 coated with paclitaxel:PEG-8000 5:1 at 3.0 ug/mm2, GenePulser II 0.5 kV/1 μF, 3 pulses during about 1 minute expansion, vs same device without voltage.

Description: The energy source to power the device is a pulse generator capable of producing square waves. One commercial example of such a device is the BioRad Gene Pulser II (FIG. 7). The square wave generator produces suitable voltages between the range of 0.001 kV and 5 kV across the membrane. For all prototyping, this device was used to power all of coated catheters by connecting to the wire connection at the proximal catheter end. […] The tissue is then stored in isotonic saline and placed on ice (or 4° C.) for immediate use in an ex-vivo circulatory system.
Ex Vivo Testing Protocol • Fresh PBS is made with pre-measured pellets (1 pellet/100 ml H2O). • Porcine arterial tissue was acquired and cut to length • Arteries are placed in fresh PBS while cleaning of adventitia is performed. • Arteries are attached to the circulation apparatus with cannulas to allow flow through the vessel. […]

For `CC(=O)O[C@H]1C(=O)[C@@]2(C)[C@H]([C@H](OC(=O)c3ccccc3)[C@]3(O)C[C@H](OC(=O)[C@H](O)[C@@H](NC(=O)c4ccccc4)c4ccccc4)C(C)=C1C3(C)C)[C@]1(OC(C)=O)CO[C@@H]1C[C@@H]2O` [paclitaxel], the “enhancement of the transfer of paclitaxel to arteries by application of voltage (factor)” value is 10 ×.
